Columns and labels:
DRG neurons = experiment: cells; type: cell-based; details: Rattus norvegicus, DRG neuron, 10 min, read-out: 45Ca Influx EC50
[1] = tested on: acetic acid-induced writhing in ICR mice; experiment: animal or person; type: in vivo, mouse; details: for ED50: Mus musculus, ip, read-out: Writhing Test ED50
[2] = tested on: PBQ-induced writhing in ICR mice; experiment: animal or person; type: in vivo, mouse
[3] = tested on: TPA-induced ear edema in ICR mice; details: mouse, in vivo
[4] = tested on: rat eye (eye-wiping response); details: in vivo

With `COc1cc(CNC(=S)NCC(COC(=O)C(C)(C)C)Cc2ccc(C)c(C)c2)ccc1OCC(=O)O` (centres unmarked) [19a, 2,2-Dimethyl-propionic Acid 2-[3-(4-Carboxymethoxy-3-methoxy-benzyl)-thioureidomethyl]-3-(3,4-dimethyl-phenyl)-propyl Ester] the EC50 (DRG neurons) was 7770 ± 800 nM and the ED50 [1] was 0.431 mg/kg.

With `COc1cc(CNC(=S)NCC(COC(=O)C(C)(C)C)Cc2ccc(C(C)(C)C)cc2)ccc1OCC(=O)O` (centres unmarked) [19b, 2,2-Dimethyl-propionic Acid 3-(4-t-Butyl-phenyl)-2-[3-(4-carboxymethoxy-3-methoxy-benzyl)-thioureidomethyl]-propyl Ester] the EC50 (DRG neurons) was 12300 ± 1580 nM and the ED50 [1] was 0.365 mg/kg.

For `COc1cc(CNC(=S)NCC(COC(=O)C(C)(C)C)Cc2ccc(C)c(C)c2)ccc1OC(=O)CCC(=O)O` (centres unmarked) [23a, Succinic Acid Mono-(4-{3-[3-(3,4-dimethyl-phenyl)-2-(2,2-dimethyl-propionyloxymethyl)-propyl]-thioureidomethyl}-2-methoxy-phenyl) Ester], the EC50 (DRG neurons) was 7040 ± 1300 nM and the ED50 [1] was 0.0531 mg/kg.

Compound `COc1cc(CNC(=S)NCC(COC(=O)C(C)(C)C)Cc2ccc(C(C)(C)C)cc2)ccc1OC(=O)CCC(=O)O` (centres unmarked) [23b, Succinic Acid Mono-(4-{3-[3-(4-t-butyl-phenyl)-2-(2,2-dimethylpropionyloxymethyl)-propyl]-thioureidomethyl}-2-methoxy-phenyl) Ester] has an EC50 (DRG neurons) of 7000 ± 1200 nM and an ED50 [1] of 0.06 mg/kg.

In the case of `COc1cc(CC(=O)NCC(COC(=O)C(C)(C)C)Cc2ccc(C)c(C)c2)ccc1OCCN` (centres unmarked) [28a, 2,2-Dimethyl Propionic Acid 2-({2-[4-(2-Aminoethoxy)-3-methoxyphenyl]acetylamino}methyl)-3-(3,4-dimethylphenyl)propyl Ester], the EC50 (DRG neurons) is reported as 1570 ± 230 nM, the ED50 [1] is reported as 0.00096 mg/kg and the “analgesic activity (in words)” value ([1]; mouse, in vivo) is reported as “the most potent one and more potent than DA-5018”.

With `COc1cc(CC(=O)NCC(COC(=O)C(C)(C)C)Cc2ccc(C(C)(C)C)cc2)ccc1OCCN` (centres unmarked) [28b, 2,2-Dimethyl Propionic Acid 2-({2-[4-(2-Aminoethoxy)-3-methoxyphenyl]acetylamino}methyl)-3-(4-t-butylphenyl)propyl Ester] the EC50 (DRG neurons) was 878 ± 170 nM and the ED50 [1] was 0.00812 mg/kg.

Compound `COc1cc(CNC(=S)NCC(COC(=O)C(C)(C)C)Cc2ccc(C)c(C)c2)ccc1OCCN` (centres unmarked) [36a, 2,2-Dimethyl Propionic Acid 2-{3-[4-(2-Aminoethoxy)-3-methoxybenzyl]thioureido Methyl}-3-(3,4-dimethylphenyl)propyl Ester] has an EC50 (DRG neurons) of 83 ± 12 nM and an ED50 [1] of 0.014 mg/kg.

In the case of `COc1cc(CNC(=S)NCC(COC(=O)C(C)(C)C)Cc2ccc(C(C)(C)C)cc2)ccc1OCCN` (centres unmarked) [36b, 2,2-Dimethyl Propionic Acid 2-{3-[4-(2-Aminoethoxy)-3-methoxybenzyl]thioureido Methyl}-3-(4-t-butylphenyl)propyl Ester], the EC50 (DRG neurons) is reported as 377 ± 67 nM and the ED50 [1] is reported as 0.0482 mg/kg.

For `COc1cc(CC(=O)NCCCc2ccc(C)c(C)c2)ccc1OCCN` [DA-5018, 2-[4-(2-aminoethoxy)-3-methoxyphenyl]-N-[3-(3,4-dimethylphenyl)propyl]acetamide, reference compound], the ED50 ([2]; Mus musculus, ip, read-out: Writhing Test ED50) was 0.003 mg/kg, the “Relative Potency (Writhing Test)” value ([2]; mouse, in vivo) was 100 and the “Ear Edema Assay ID50” value [3] was 200 μg/ear. For the same compound, the “Relative Potency (Ear Edema Assay)” value [3] was 0.015, the “antiinflammatory activity in the TPA ear edema assay (in words)” value [3] was “weak topical activity” and the EC50 (DRG neurons) was 234 nM. For the same compound, the ED50 [1] was 0.00227 mg/kg, the “MPP: moderate pain-producing potency” value [4] was 0.003% and the “RPP: relative pain-producing potency” value [4] was 10.
